biological target: T1, SARM1 (50-724) (Homo sapiens, UniProt Q6SZW1); assay: biochemical
T1 sequence (Q6SZW1 50-724): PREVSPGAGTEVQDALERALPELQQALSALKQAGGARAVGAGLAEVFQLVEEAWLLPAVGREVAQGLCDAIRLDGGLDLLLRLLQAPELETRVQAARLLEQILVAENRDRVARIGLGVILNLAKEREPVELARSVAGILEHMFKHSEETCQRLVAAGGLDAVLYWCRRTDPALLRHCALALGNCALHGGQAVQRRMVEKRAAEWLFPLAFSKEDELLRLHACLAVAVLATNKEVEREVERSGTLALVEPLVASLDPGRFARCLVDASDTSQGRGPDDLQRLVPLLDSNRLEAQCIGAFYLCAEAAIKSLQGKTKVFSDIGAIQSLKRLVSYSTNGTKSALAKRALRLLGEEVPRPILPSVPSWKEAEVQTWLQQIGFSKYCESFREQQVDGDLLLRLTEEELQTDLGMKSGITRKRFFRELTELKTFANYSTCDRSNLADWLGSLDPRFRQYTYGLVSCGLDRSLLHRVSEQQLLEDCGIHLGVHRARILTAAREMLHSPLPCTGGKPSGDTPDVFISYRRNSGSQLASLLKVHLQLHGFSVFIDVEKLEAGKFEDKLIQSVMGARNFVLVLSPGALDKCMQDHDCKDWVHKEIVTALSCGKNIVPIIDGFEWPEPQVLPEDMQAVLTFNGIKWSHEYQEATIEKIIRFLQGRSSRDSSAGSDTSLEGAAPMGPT
Procedure: An enzymatic assay was performed in a 384-well plate using Dulbecco's phosphate-buffered saline (PBS) as the reaction buffer. […] The reaction was initiated by adding a mixture of 200 μM nicotinamide mononucleotide (NMN) as activator and 100 μM NAD^+ as substrate. After 1 h of incubation at room temperature, the reaction was terminated with 10 times volume of 70% acetonitrile, then centrifuged at 3800 rpm for 10 min.

How did the IC50 turn out when `O=S(=O)(Nc1cc2ccccc2cn1)c1cccc(Cl)c1Cl` [Compound 76, 2,3-dichloro-N-(isoquinolin-3-yl)benzenesulfonamide] was run?
Its IC50 is 100 to 500 nM.

How did the IC50 turn out when `CC(Nc1ccc2c(c1)c(N)nn2C)c1nc(Cl)c(Cl)s1` (centres unmarked) [Compound 288, N5-(1-(4,5-dichlorothiazol-2-yl)ethyl)-1-methyl-1H-indazole-3,5-diamine] was run?
The IC50 was under 100 nM.

`COc1nccc2ccc(NC(C)c3c(Cl)nn(C)c3Cl)cc12` (racemic) [Compound 248, N-(1-(3,5-dichloro-1-methyl-1H-pyrazol-4-yl)ethyl)-1-methoxyisoquinolin-7-amine] was tested. Which IC50 did it give?
Its IC50 is 100 to 500 nM.

With `CC(Nc1ccc2c(c1)nc(C(N)=O)n2C)c1c(Cl)ccc(F)c1Cl` (racemic) [Compound 263, 5-((1-(2,6-dichloro-3-fluorophenyl)ethyl)amino)-1-methyl-1H-benzo[d]imidazole-2-carboxamide] as the molecule, how does the IC50 read?
Its IC50 is under 100 nM.

Which IC50 does the source give for `COc1ncc(C(C)Nc2ccc3cc[nH]c(=O)c3c2)cc1Cl` (racemic) [Example 117, 7-((1-(5-chloro-6-methoxypyridin-3-yl)ethyl)amino)isoquinolin-1(2H)-one] here?
The IC50 was 100 to 500 nM.

Which IC50 does the source give for `Cc1c2ccc(NC(C)c3nc(Cl)c(Cl)s3)cc2nn1[C@@H]1CC[C@@H](O)C1` (stereo in doubt) [Compound 335, 3-(6-((1-(4,5-dichlorothiazol-2-yl)ethyl)amino)-3-methyl-2H-indazol-2-yl)cyclopentan-1-ol] here?
The IC50 was under 100 nM.

How did the IC50 turn out when `O=C1NCCCc2ccc(NS(=O)(=O)c3cccc(Cl)c3Cl)cc21` [Compound 41, 2,3-dichloro-N-(1-oxo-2,3,4,5-tetrahydro-1H-benzo[c]azepin-8-yl)benzenesulfonamide] was run?
The IC50 was under 100 nM.

For `CCC(Nc1ccc2cc[nH]c(=O)c2c1)c1nccc(Cl)c1Cl` (racemic) [Example 153, 7-((1-(3,4-dichloropyridin-2-yl)propyl)amino)isoquinolin-1(2H)-one], which IC50 is on record?
The IC50 was under 100 nM.

How did the IC50 turn out when `CC(Nc1cc(F)c2ncn(-c3cnn[nH]3)c(=O)c2c1)c1nc(Cl)c(Cl)s1` (racemic) [Example 372, 6-((1-(4,5-dichlorothiazol-2-yl)ethyl)amino)-8-fluoro-3-(1H-1,2,3-triazol-5-yl)quinazolin-4(3H)-one] was run?
The IC50 was under 100 nM.

How did the IC50 turn out when `COC(=O)Cc1ccc(NS(=O)(=O)c2cccc(Cl)c2Cl)cc1` [Compound 67] was run?
The IC50 was 100 to 500 nM.

`C[C@@H](Nc1ccc2c(c1)NC(=O)C2(C)C)c1nc(Cl)c(Cl)s1` (single isomer, unassigned) [Compound 234] was tested. Which IC50 did it give?
Its IC50 is under 100 nM.

With `Cc1cnc2cc(NS(=O)(=O)c3cccc(Cl)c3Cl)ccc2c1` [Compound 26, 2,3-dichloro-N-(3-methylquinolin-7-yl)benzenesulfonamide] as the molecule, how does the IC50 read?
The IC50 was under 100 nM.

`CC(Nc1ccc2nc[nH]c(=O)c2n1)c1ccc(F)c(Cl)c1Cl` (racemic) [Compound 384, 6-((1-(2,3-dichloro-4-fluorophenyl)ethyl)amino)pyrido[3,2-d]pyrimidin-4(3H)-one] was tested. Which IC50 did it give?
The IC50 was 100 to 500 nM.

With `Cc1ccc2ccc(NS(=O)(=O)c3cccc(Cl)c3Cl)cc2n1` [Compound 71, 2,3-dichloro-N-(2-methylquinolin-7-yl)benzenesulfonamide] as the molecule, how does the IC50 read?
The IC50 was 100 to 500 nM.

`CC1(C)CC(=O)c2cc(NS(=O)(=O)c3cccc(Cl)c3Cl)ccc21` [Compound 264, 2,3-dichloro-N-(1,1-dimethyl-3-oxo-2,3-dihydro-1H-inden-5-yl)benzenesulfonamide] was tested. Which IC50 did it give?
Its IC50 is under 100 nM.

`CC(Nc1cc(F)c2c(c1)C(=O)N(CC(N)=O)C2(C)C)c1nc(Cl)c(Cl)s1` (racemic) [Compound 328, 2-(5-((1-(4,5-dichlorothiazol-2-yl)ethyl)amino)-7-fluoro-1,1-dimethyl-3-oxoisoindolin-2-yl)acetamide] was tested. Which IC50 did it give?
The IC50 was under 100 nM.

Which IC50 does the source give for `CC(Nc1ccc2c(c1)c(C(=O)N(C)C)nn2C)c1c(Cl)ccc(F)c1Cl` (racemic) [Compound 245, 5-((1-(2,6-dichloro-3-fluorophenyl)ethyl)amino)-N,N1-trimethyl-1H-indazole-3-carboxamide] here?
Its IC50 is 100 to 500 nM.
